pIC50: −log10 of the molar value.
Columns and labels:
occludin in A549 cells = assay: High-content imaging of junctional occludin staining in A549 cells; format: cell-based; conditions: for area of junctional staining present at the cell membrane compared to DMSO controls: A549, 24 h, concentration-dependent, Fig. 2 shows TNFα/TGFβ as a combination
Method: A549 (ATCC), an alveolar epithelial cell line, and CALU-3 (ATCC), an epithelial cell line, were cultured in Dulbecco’s modified Eagle’s medium (DMEM) supplemented with 10% foetal bovine serum (FBS). 16HBE bronchial epithelial cells, kindly provided by Carl Staples (University of Southampton), were cultured in DMEM supplemented with 10% FBS and 1% non-essential amino acids). All culture media materials were purchased from Thermo Fisher Scientific. For imaging experiments, cells were seeded at 10,000 cells per well in 96-well CellCarrier imaging plates (Perkin Elmer) and cultured for 72 h to allow tight junction formation. All experiments were carried out between passages 3 and 15.
All tested compounds were synthesized internally and provided in 100% DMSO. Compounds were diluted in appropriate media to a 9-point concentration range from 100 µM down to 15 nM with a final concentration of 1% DMSO. Cigarette smoke extract (CSE) was produced by passing smoke from 5 University of Kentucky research cigarettes with filters removed through PBS with an air pump at a rate 0.07 L/min. CSE was diluted in appropriate media to a concentration range of 12% to 0.01%. TNF-α and TGF-β (Thermo Fisher Scientific) were diluted in appropriate media to a concentration range of 50 ng/ml to 0.02 ng/ml. All treatments were for 24 h and terminated by removing media and fixing with 4% paraformaldehyde (PFA). Vehicle (1% DMSO) was included for each plate and all treatments were carried out in duplicate on each plate. All experiments were independently repeated at least 3 times.
Following treatment, cells were washed twice in PBS and fixed in 4% PFA for 20 min at room temperature and permeabilized using 0.5% Triton-X for 15 min at room temperature. Cells were then blocked using 5% goat serum in PBS at room temperature for 1 h. Primary antibodies were applied as per optimized conditions based on manufacturers recommended dilutions overnight at 4 °C. Cells were washed twice in PBS prior to application of secondary antibodies at a dilution of 1:5000 for 1 h at room temperature. Cells were washed twice with PBS and subsequently stained with a mixture of Hoechst and Cell Mask Deep Red at 1:1000 in PBS. Finally, cells were washed twice in PBS and either stored at 4 °C or imaged immediately. Plates were imaged using a MolecularDevices IXC. […] Cell viability was assessed through direct counts of nuclei.
Analysis modules were written using the custom module editor of MetaXpress version 6.5.4.532. […] This thickened outline mask was then applied to the cell mask image and the area of staining was quantified. […] To quantify the amount of occludin staining at the membrane, the final step of the module overlaid the thickened membrane mask with the thickened junction mask. […]

respiratory tract = system: respiratory tract; set-up: method as in printed; conditions: ref not given, cited from earlier work

Compound | area of junctional staining present at the cell membrane compared to DMSO controls (occludin in A549 cells) | pIC50 (occludin in A549 cells; area of occludin staining normalized to cell number and DMSO, 24 h, 9-point range up to 100 µM, NA = no IC50 curve could be established) | Comment (respiratory findings) (respiratory tract; earlier non-clinical or clinical findings) | Respiratory safety risk (respiratory tract; earlier pivotal toxicology studies in pre-clinical species or clinic)
TNF-α | significant decrease | – | – | –
TGF-β | significant decrease | – | – | –
[Cl][Cd][Cl] [Cadmium chloride] | significant decrease | 5.43 | Pneumonitis and fibrosis | Yes
